According to patent publication US20100204460A1, “NATURAL BRASSINOSTEROIDS FOR USE FOR TREATING HYPERPROLIFERATION, TREATING PROLIFERATIVE DISEASES AND REDUCING ADVERSE EFFECTS OF STEROID DYSFUNCTION IN MAMMALS, PHARMACEUTICAL COMPOSITION AND ITS USE” (priority 2007, published 2010):
Several values for one entry are separate records, joined by “and”; a condition that tells them apart may be missing. Identical values can stand only once. Entries after “also recorded” stand apart in the source; their conditions may differ. Like-named read-outs stand apart in the source and are kept apart here.

Assays:
[1] = tested on: normal human fibroblasts (BJ); experiment: Calcein AM cytotoxicity assay, BJ; format: cell-based; conditions: BJ normal fibroblasts; exposure 72 h (b71 says 96 h); mean ± SD; read-out: IC50 assessed by Calcein AM assay of surviving cells
MCF-7 cells [2] = experiment: TUNEL detection of apoptosis, MCF-7; format: cell-based; conditions: IC50 concentration
Protocol: (§1) TdT-Mediated dUTP nick end labeling (TUNEL) detection of apoptosis index. For detection of apoptotic cells, the TUNEL assay was used. […] After period of treatment, the cells were washed with PBS and fixed on the slides with cold acetone-methanol (1:1, v/v) for 10 min. Apoptosis-induced nuclear DNA fragmentation was detected by terminal deoxynucleotidyl transferase-mediated UTP nick end labeling (TUNEL) technique according to the producer protocol (In Situ Cell Death Detection Kit; Roche Diagnostics, Mannheim, Germany). The cells were then washed three times in PBS and stained with 4′-6-diamidino-2-phenylindole (DAPI; 50 μg/ml; Sigma, St. Louis, Mo., USA) for 10 min in the dark. The coverslips with cells were washed in deionized water and mounted on glass slides, using the hydrophilic medium Mowiol (Calbiochem, Fremont, Calif., USA) in glycerol-PBS (1:3, v/v) for fluorescence. Cells were visualized using fluorescence microscopy and compared with control cells. TUNEL staining achieved to confirm apoptosis in all cell lines.

LNCaP cells [3] = experiment: TUNEL detection of apoptosis, LNCaP; format: cell-based; conditions: IC50 concentration
Protocol: as §1

MCF-7 cells [4] = experiment: Western blot of cell cycle and apoptosis related proteins, MCF-7; format: cell-based; conditions: for MDM-2 expression (Western blot) / expression of apoptosis related proteins (Bcl-2 family, caspase-3 activation) (Western blot) / p21Waf1/Cip1 expression (Western blot) / p27Kip1 expression (Western blot) / p53 expression (Western blot): IC50 for 6, 12, 24 h vs untreated control; for retinoblastoma protein (Rb) expression, phosphorylated and dephosphorylated forms (Western blot): vs untreated control
Protocol: (§2) The cells were seeded in a density 1.6×10^4 cells/cm^2 (LNCaP), 1.4×10^4 cells/cm^2 (DU-145, MDA-MB-468 and MCF-7) using culture medium in 100-mm culture Petri dishes. After reaching of 70-80% confluence, the cells were treated with tested compounds 9 in concentration IC50 that were evaluated by MTT analysis described above. DMSO was used as a vehicle for controls. After 6, 12 and 24 h treatment, the cells were washed with cold PBS and scraped in ice-cold protein extract ion buffer (50 mM HEPES, pH 7.5; 150 mM NaCl; 1 mM EDTA; 2.5 mM EGTA; 10% glycerol; 0.1% Tween 20) with protease and phosphatase inhibitors (25 μL/mL phenylmethanesulphonyl fluoride; 2.5 μL/mL leupeptin; 0.1 mM Na3VO4; 2.5 μL/mL aprotinin; 10 mM β-glycerol-phosphate; 1 mM dithiothreitol). The lysates were collected into microfuge tube and incubated on ice for 1 h. Cells were incubated 60 min at 4° C. under time by time shaking in protein extraction buffer. After centrifugation at 45 000×g for 30 min at 4° C., supernatant was collected, aliquoted, and stored at −80° C. The protein content in the lysates was measured by a Bredford assay (Bio-Rad Laboratories, Hercules, Calif., USA) according to the manufacture's protocol.
(§3) For Western blot analysis, equal aliquots of proteins (15-30 μg/well) were loaded on 10% or 12% SDS-PAGE gels and transferred onto nitrocellulose membranes (Amersham Biosciences, Vienna, Austria) by semi-dry electrophoretic transfer. Coloured marker (Rainbow™, Amersham Biosciences, Vienna, Austria) was used as a protein molecular weight standard. The non-specific binding sites were blocked by incubating the blot with 5% (w/v) non-fat dry milk in PBS for 2 h. The blot was incubated overnight in 4° C. with appropriate primary antibody that detects the protein epitope of interest and finally washed in PBS with 0.1% Tween 20 for 1 h. The blot was incubated with the diluted secondary goat anti-mouse IgG-horseradish peroxidase conjugated antibody (dilution 1:6000, Santa Cruz Biotechnology, Santa Cruz, Calif., USA) or goat anti-rabbit IgG-horseradish peroxidase conjugated antibody (dilution 1:2000, DakoCytomation, Glostrup, Denmark) for 45 min in 4° C. The membrane was washed in PBS with 0.1% Tween 20 for 1 h. The proteins were detected using a chemiluminescence detection system (Amersham Biosciences, Vienna, Austria) according to the protocol provided by the manufacturer. Equality of loaded proteins was confirmed by Ponceau S membrane staining (Sigma, St. Louis, Mo., USA) and by detection of anti-tubulin-α or anti-mcm-7 antibodies. The experiments were repeated three times. The protein expressions in treated cells were compared to untreated controls.
(§4) Western blot analysis was used to detect changes in apoptosis related protein expression in breast and prostate cancer cell lines. […] This decreased expression of Bid can indicate a cleavage of the protein after treatment by BRs. In DU-145 cell line, expression of pro-apoptotic proteins Bax and Bid was unchanged. […] On the other hand, caspase cleavage was not found in DU-145 cells. Poly-(ADP-ribose) polymerase (PARP) positive expression in controls of prostate cancer cell lines was observed but brassinosteroids had no effect on its expression nor on its degradation within the period 6/12/24 h (FIG. 6B).

LNCaP cells [5] = experiment: Western blot of cell cycle and apoptosis related proteins, LNCaP; format: cell-based; conditions: IC50 for 6, 12, 24 h vs untreated control
Protocol: as §2, §3, §4

[6] = tested on: cultured mouse hybridoma cells; conditions: cited from earlier work; for density of viable cells / growth: mouse hybridoma cells, concentrations of 10^−13 mol/L and 10^−12 mol/L
[7] = tested on: herpes simplex virus type 1 (HSV-1); conditions: cited from earlier work
measles virus (MV) = conditions: cited from earlier work

SMILES | IC50 [1] [µM] | percentage of TUNEL positive cells (MCF-7 cells [2]; 6 h, control 0.0 ± 0.0) [%] | percentage of TUNEL positive cells (MCF-7 cells [2]; 12 h, control 0.0 ± 0.0) [%] | percentage of TUNEL positive cells (MCF-7 cells [2]; 24 h, control 0.3 ± 0.6) [%] | percentage of TUNEL positive cells (LNCaP cells [3]; 6 h, control 0.3 ± 0.6) [%] | percentage of TUNEL positive cells (LNCaP cells [3]; 12 h, control 0.6 ± 0.6) [%] | percentage of TUNEL positive cells (LNCaP cells [3]; 24 h, control 0.6 ± 0.6) | MDM-2 expression (Western blot) (MCF-7 cells [4]) | expression of apoptosis related proteins (Bcl-2 family, caspase-3 activation) (Western blot) (MCF-7 cells [4]) | p21Waf1/Cip1 expression (Western blot) (MCF-7 cells [4]) | p27Kip1 expression (Western blot) (MCF-7 cells [4]) | p53 expression (Western blot) (MCF-7 cells [4]) | retinoblastoma protein (Rb) expression, phosphorylated and dephosphorylated forms (Western blot) (MCF-7 cells [4]) | MDM-2 expression (Western blot) (LNCaP cells [5]) | anti-apoptotic protein Bcl-2 expression (Western blot) (LNCaP cells [5]) | caspase-3 cleavage / activation (Western blot) (LNCaP cells [5]) | p21Waf1/Cip1 expression (Western blot) (LNCaP cells [5]) | p27Kip1 expression (Western blot) (LNCaP cells [5]) | p53 expression (Western blot) (LNCaP cells [5]) | also measured
CC(C)[C@@H](C)[C@@H](O)[C@H](O)[C@@H](C)[C@H]1CC[C@H]2[C@@H]3COC(=O)[C@H]4C[C@H](O)[C@H](O)C[C@]4(C)[C@H]3CC[C@]12C [Brassinosteroid 6, 24-Epibrassinolide] | > 50 | 2.7 ± 1.2 | 8.3 ± 3.1 | 11.7 ± 3.8 | 10.7 ± 4.0 | 12.2 ± 5.1 | 21.9% and 21.9 ± 3.0 % | decreased expression of MDM-2 regulator of p53 degradation after all time points | no significant changes in expression of Bcl-2 family protein nor caspase-3 activation | unchanged | decrease after 6 and 12 h | after 6 h exposition to brassinosteroids 9 or 6 a slight increase | decreased | unchanged | decreased after treatment with 9 (6, 12 and 24 h) or 6 (6 and 24 h) | activation of caspase-3 after 24 h; also recorded: degradation of procaspase-3 into cleaved fragments was detected after all time points of treatment with 9 and after 24 h treatment with 6 | decreased expression of p21^Waf1/Cip1 after 6 and 24 h | decreased expression of p21^Waf1/Cip1 after 6 and 24 h treatment and p27^Kip1 protein expression after 6 and 12 h | decreased expression of p53 after brassinosteroids 9 or 6 treatment was found after 12 and 24 h | cyclin D1 expression (Western blot) (MCF-7 cells [4]; 6/12/24 h vs untreated control): decreased expression of cyclin D1; S-phase cells ([6]; cultured mouse hybridoma cells): decrease of S-phase cells; fraction of the cells in G0/G1 phase ([6]; cultured mouse hybridoma cells): increase in the fraction of the cells in G0/G1 phase; intracellular antibody level ([6]; cultured mouse hybridoma cells): decrease of intracellular antibody level; value of mitochondrial membrane potential ([6]; cultured mouse hybridoma cells): increase in the value of mitochondrial membrane potential; density of viable cells / growth ([6]; listed as 6): significant positive effect; density of viable cells / growth ([6]; listed as 24-epibrassinolide): significantly higher
CC[C@@H](C(C)C)[C@@H](O)[C@H](O)[C@@H](C)[C@H]1CC[C@H]2[C@@H]3CC(=O)[C@H]4C[C@H](O)[C@H](O)C[C@]4(C)[C@H]3CC[C@]12C [Brassinosteroid 9, 28-Homocastasterone] | > 50 | 10.6 ± 1.5 | 13.7 ± 3.8 | 13.7 ± 2.6 | 7.3 ± 2.1 | 15.7 ± 2.5 | 25.8% and 25.8 ± 2.5 % | decreased expression of MDM-2 regulator of p53 degradation after all time points | no significant changes in expression of Bcl-2 family protein nor caspase-3 activation | increase in p21^Waf1/Cip1 and p27^Kip1 expression after 6 h | increase in p21^Waf1/Cip1 and p27^Kip1 expression after 6 h | after 6 h exposition to brassinosteroids 9 or 6 a slight increase | decreased | increased after 9 treatment (6 h) | decreased after treatment with 9 (6, 12 and 24 h); also recorded: significant decrease in the levels of anti-apoptotic Bcl-2 protein | induced degradation of caspase-3 into its cleaved fragments after all time points (6, 12 and 24 h); also recorded: degradation of procaspase-3 into cleaved fragments was detected after all time points | decreased level of p21^Waf1/Cip1 after 12 h | increased level of p27^Kip1 after 24 h | decreased expression of p53 after brassinosteroids 9 or 6 treatment was found after 12 and 24 h | pro-apoptotic Bax level (Western blot) (LNCaP cells [5]): increased level of pro-apoptotic Bax after the 9 treatment after 6 and 12 h; also recorded: increase in the pro-apoptotic Bax protein; in vitro antiviral activity [7]: in vitro antiviral activity; in vitro antiviral activity (measles virus (MV)): in vitro antiviral activity
